# Test results from patent US20230158041A1, “METHODS AND COMPOSITIONS FOR TREATING AUTOSOMAL DOMINANT POLYCYSTIC KIDNEY DISEASE” (OTSUKA PHARMACEUTICAL CO.,LTD., priority 2021, published 2023).
# Entries after “also recorded” stand apart in the source; their conditions may differ. Marks after values point to notes of the source that are not given here.
# Key:
# (OAT)3 [1] = biological target: T1, (OAT)3 (Homo sapiens, UniProt Q8TCC7); assay: Trial 2: (OAT)3 inhibition, furosemide in presence of DM-4103 vs. furosemide alone; type: in vivo; design: endogenous in cells; host or cells: healthy human subjects, in vivo; details: furosemide 48 hours following 7 days of 300 mg tolvaptan q.d.
# T1 sequence (Q8TCC7 1-542): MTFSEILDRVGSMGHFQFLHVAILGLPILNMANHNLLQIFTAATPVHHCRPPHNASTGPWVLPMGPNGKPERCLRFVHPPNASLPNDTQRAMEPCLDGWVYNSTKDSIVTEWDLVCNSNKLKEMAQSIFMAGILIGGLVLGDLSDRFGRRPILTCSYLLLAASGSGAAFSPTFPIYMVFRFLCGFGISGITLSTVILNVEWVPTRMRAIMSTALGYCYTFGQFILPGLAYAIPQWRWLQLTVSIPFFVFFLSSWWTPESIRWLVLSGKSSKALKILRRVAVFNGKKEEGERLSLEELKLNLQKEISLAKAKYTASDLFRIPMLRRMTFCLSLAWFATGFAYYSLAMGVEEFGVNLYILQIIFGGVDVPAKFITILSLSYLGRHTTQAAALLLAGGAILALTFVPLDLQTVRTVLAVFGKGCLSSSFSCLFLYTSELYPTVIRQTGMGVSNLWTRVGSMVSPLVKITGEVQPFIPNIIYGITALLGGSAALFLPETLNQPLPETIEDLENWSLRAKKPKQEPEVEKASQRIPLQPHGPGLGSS
# plasma protein = assay: DM-4103 plasma protein binding, micropartition device (Centrifree YM-30) with HPLC-MS/MS; type: in vitro ADME
# Description: The effect of six other highly plasma protein bound compounds on DM-4103 binding was also evaluated. […] No potential for interaction at either transporter would have been predicted if a free fraction of 0.1% had been used, consistent with the clinical findings.
# human (OATP)1B1 = biological target: T2, human (OATP)1B1 (Homo sapiens, UniProt Q9Y6L6)
# T2 sequence (Q9Y6L6 1-691): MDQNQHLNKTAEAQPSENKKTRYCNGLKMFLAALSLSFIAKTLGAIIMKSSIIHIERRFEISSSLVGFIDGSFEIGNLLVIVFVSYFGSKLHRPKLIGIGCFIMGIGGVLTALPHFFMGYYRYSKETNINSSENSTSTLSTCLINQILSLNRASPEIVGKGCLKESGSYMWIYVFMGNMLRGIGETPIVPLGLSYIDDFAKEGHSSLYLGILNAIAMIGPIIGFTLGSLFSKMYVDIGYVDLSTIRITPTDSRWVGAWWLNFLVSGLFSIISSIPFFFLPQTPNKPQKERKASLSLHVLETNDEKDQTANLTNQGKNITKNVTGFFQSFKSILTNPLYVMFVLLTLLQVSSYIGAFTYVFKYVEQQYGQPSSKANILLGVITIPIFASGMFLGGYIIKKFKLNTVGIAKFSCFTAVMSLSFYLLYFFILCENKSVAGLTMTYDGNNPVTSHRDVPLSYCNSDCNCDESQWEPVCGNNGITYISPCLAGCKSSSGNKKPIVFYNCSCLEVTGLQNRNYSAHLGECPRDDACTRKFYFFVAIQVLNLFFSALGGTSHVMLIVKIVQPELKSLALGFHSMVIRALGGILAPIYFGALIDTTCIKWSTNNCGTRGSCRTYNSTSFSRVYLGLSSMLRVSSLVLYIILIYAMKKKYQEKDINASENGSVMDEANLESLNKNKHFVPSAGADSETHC
# Description: (OATP)1B1: Estradiol 17β-D-glucuronide transport was evaluated in HEK293 cells stably expressing human (OATP)1B1 (kit with ready to use 24 well plates were obtained from GenoMembrane). […] DM-4103 concentrations of 0.064, 0.32, 1.6, 8.0, 40, and 200 μM were tested.
# [2] = Earlier clinical data for tolvaptan and DM-4103 (PK, tolerability; data on file); type: in vivo, human
# (OAT)3 [3] = biological target: T1, (OAT)3; assay: Estrone 3-sulfate transport inhibition in HEK293 cells stably expressing human (OAT)3; type: cell-based; design: host or cells: HEK293
# Description: (OAT)3: Estrone 3-sulfate transport was evaluated in HEK293 cells stably expressing human (OAT)3 (kit with ready to use 24 well plates were obtained from GenoMembrane). […] DM-4103 concentrations of 0.064, 0.32, 1.6, 8.0, 40, and 200 μM were tested.
# [4] = Trial 1: plasma rosuvastatin PK, tolvaptan and DM-4103 plasma concentrations, adverse events in healthy subjects
# Description: (§1) Trial 1 was designed as an open-label, 3-period, sequential crossover. […] On days 7 to 13, 300 mg tolvaptan was administered q.d.
# Doses on pharmacokinetic (PK) sampling days were administered in the fasted state with 240 ml of room temperature still water. No food was allowed from 10 h prior to dosing until lunch was given following the 4 h post-dose assessments; water was available ad libitum except for +/−2 h around dosing. On non-PK sampling days, tolvaptan was administered at least 30 min prior to breakfast. Safety was evaluated by laboratory values, vital signs, and 12-lead electrocardiogram (ECG) at screening, day 1, and discharge (no ECG), and adverse event reports.
# A 90 mg dose of tolvaptan was chosen as it is the highest dose administered at any given time in the treatment of ADPKD.
# The assay used to determine plasma tolvaptan concentrations also included DM-4103 as a standard. The precursor→production was m/z 479→252.
# [5] = in vivo; cited from earlier work
# [6] = Phase III ADPKD trials: statin use with tolvaptan; type: in vivo, human; details: subjects taking tolvaptan alone or tolvaptan plus statins
# [7] = test system: sandwich-cultured human hepatocytes; details: cited from earlier work
# [8] = Phase II and III congestive heart failure trials: tolvaptan with furosemide; type: in vivo, human; details: tolvaptan+furosemide compared with placebo+furosemide
# BCRP [9] = biological target: T3, BCRP (Homo sapiens, UniProt Q9UNQ0); assay: Trial 1: BCRP inhibition, rosuvastatin + tolvaptan vs. rosuvastatin alone; type: in vivo; design: endogenous in cells; host or cells: healthy human subjects, in vivo; details: 90 mg tolvaptan with 5 mg rosuvastatin calcium
# T3 sequence (Q9UNQ0 1-655): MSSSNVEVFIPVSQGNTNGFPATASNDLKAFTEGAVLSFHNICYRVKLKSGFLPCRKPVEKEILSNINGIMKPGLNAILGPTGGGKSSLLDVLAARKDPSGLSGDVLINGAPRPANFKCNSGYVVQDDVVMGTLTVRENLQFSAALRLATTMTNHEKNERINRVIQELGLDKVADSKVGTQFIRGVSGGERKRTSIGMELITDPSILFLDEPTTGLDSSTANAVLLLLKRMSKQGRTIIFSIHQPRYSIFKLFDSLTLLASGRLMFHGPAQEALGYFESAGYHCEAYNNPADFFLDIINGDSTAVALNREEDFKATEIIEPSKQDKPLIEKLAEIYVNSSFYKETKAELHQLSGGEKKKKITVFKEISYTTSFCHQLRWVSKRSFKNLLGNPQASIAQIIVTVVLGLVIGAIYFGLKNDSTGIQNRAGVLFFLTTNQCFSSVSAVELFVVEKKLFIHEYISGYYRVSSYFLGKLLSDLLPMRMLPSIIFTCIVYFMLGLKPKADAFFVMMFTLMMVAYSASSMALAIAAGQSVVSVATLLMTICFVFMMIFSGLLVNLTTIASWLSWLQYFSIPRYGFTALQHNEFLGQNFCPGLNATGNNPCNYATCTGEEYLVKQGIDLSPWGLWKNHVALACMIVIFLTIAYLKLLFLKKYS
# Description: as §1
# An analysis of variance with a factor of period and random effect of subjects was performed on the natural-log transformed PK parameters using the MIXED procedure in SAS. From each analysis, the least square means, their difference, and the 90% CI for their difference were derived. Then, the anti-logs of the difference and the confidence limits provided the estimate and 90% CI for the ratio of the geometric means of the test treatment to the reference treatment. Only subjects with values in both treatments were used in the analysis.
# [10] = predicted; cited from earlier work
# Tolvaptan solubility = type: physicochemical; details: pH independent
# [11] = biological target: T4, sodium-dependent tauro-cholate co-transporting polypeptide (NTCP) (Homo sapiens, UniProt Q14973); details: cited from earlier work
# T4 sequence (Q14973 1-349): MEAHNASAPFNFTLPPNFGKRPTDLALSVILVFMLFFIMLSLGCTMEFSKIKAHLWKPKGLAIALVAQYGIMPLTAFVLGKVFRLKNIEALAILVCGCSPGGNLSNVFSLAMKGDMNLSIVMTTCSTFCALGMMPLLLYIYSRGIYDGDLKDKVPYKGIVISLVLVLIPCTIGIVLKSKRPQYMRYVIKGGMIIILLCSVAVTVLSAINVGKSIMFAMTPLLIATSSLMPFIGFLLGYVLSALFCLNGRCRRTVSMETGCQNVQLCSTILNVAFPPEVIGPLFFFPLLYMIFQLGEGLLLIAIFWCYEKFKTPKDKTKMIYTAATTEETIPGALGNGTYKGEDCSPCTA
# BCRP [12] = biological target: T3, BCRP
# Description: BCRP: Prazosin transport was evaluated in MDCKII BCRP-expressing cells (obtained from SOLVO Biotechnology) precultured for six to eight days.
# [13] = 300 mg tolvaptan for 5 days, healthy subjects; cited from earlier work
compound,measurement,setting,value
Cc1ccccc1C(=O)Nc1ccc(C(=O)Nc2ccc(Cl)cc2C(=O)CCC(=O)O)c(C)c1 [DM-4103],inhibition of (OAT)3 in healthy subjects,(OAT)3 [1],No inhibition; also recorded: not an inhibitor
same,plasma protein binding (PPB),plasma protein,greater than 99.8%
same,DM-4103 binding in presence of six other highly plasma protein bound compounds,"plasma protein; all samples, no interactions detected",greater than 99.8%
same,IC50,human (OATP)1B1,255 nM
same,inhibitor of (OATP)1B1 in vitro,human (OATP)1B1,inhibitor
same,plasma concentrations,[2]; first 2 hours following a 90 mg tolvaptan dose,less than 100 ng/ml
same,elimination half-life,"[2]; human, in vivo",~180 h
same,time to steady-state concentrations after the start of tolvaptan dosing,"[2]; human, in vivo",~8 weeks
same,IC50,"(OAT)3 [3]; (OAT)3 overexpressing HEK293 cells, read-out: IC50 estimate, inhibition of estrone 3-sulfate transport",425 nM
same,DM-4103 concentration at which the ratio is equal to 0.1,"(OAT)3 [3]; Imax,u/IC50 for (OAT)3, fu,p 0.01",~2034 ng/mL
same,inhibitor of (OAT)3 in vitro,(OAT)3 [3]; in vitro,inhibitor
CCCN(CCC)S(=O)(=O)c1ccc(C(=O)O)cc1 [Probenecid],inhibition at 30 µM,"(OAT)3 [3]; HEK293, read-out: inhibition of estrone 3-sulfate transport",91.1%
CC(C)c1nc(N(C)S(C)(=O)=O)nc(-c2ccc(F)cc2)c1/C=C/[C@@H](O)C[C@@H](O)CC(=O)O [rosuvastatin],Tmax,"[4]; 5 mg ROS in presence of DM-4103, median",4.00 h
same,Tmax,"[4]; 5 mg rosuvastatin + 90 mg tolvaptan, median",3.03 h
same,TEAE incidence: nausea,"[4]; human, in vivo",12.5%
same,AUCt,"[4]; human, in vivo, 5 mg",18.9 ng·h/mL
same,AUC∞,"[4]; human, in vivo, 5 mg",20.3-36.0** ng*h/ml
same,Cmax,"[4]; human, in vivo, 5 mg",2.81 ng/mL
same,Tmax,"[4]; human, in vivo, 5 mg",3.50 h
same,"t1/2, z","[4]; human, in vivo, 5 mg",2.4-4.3** h
same,observed increases in rosuvastatin maximal peak plasma concentration (Cmax),[5],up to 11 fold
"Cc1ccccc1C(=O)Nc1ccc(C(=O)N2CCCC(O)c3cc(Cl)ccc32)c(C)c1 (stereo not shown) [tolvaptan, 7-chloro-5-hydroxy-1-[2-methyl-4-(2-methylbenzoylamino)benzoyl]-2,3,4,5-tetrahydro-1H-benzoazepine]",statin use or incidences of statin-related adverse events,[6],no differences
same,accumulation in sandwich-cultured human hepatocytes,[7],at least 10 fold
same,incidence of adverse events,[8],similar
same,half-life,"[2]; human, in vivo",~3.5 h
same,accumulation,[2]; steady-state concentrations achieved on day 1,no accumulation
same,inhibition of BCRP in healthy subjects,BCRP [9],No clinically-relevant inhibition
same,liver:blood ratio,[10],38.76
same,solubility,Tolvaptan solubility,about 0.01 g/250 ml
same,NTCP IC50 value relative to Cmax,[11],higher than Cmax
same,inhibitor of NTCP,[11],inhibitor of NTCP
same,IC50,BCRP [12],8320 nM
same,Igut/IC50 (printed as predicted Ki),BCRP [12]; human,96.4
same,safety and tolerability,[13],safe and well-tolerated
